Paper PMC4838890, “Dynamic and flexible H3K9me3 bridging via HP1β dimerization establishes a plastic state of condensed chromatin” (Nature Communications, 2016)

Columns and labels:
mouse fibroblasts = experiment: Subnuclear distribution of EGFP fusion proteins; assay type: cell-based; conditions: GFP fusions transiently expressed, n >100
Text: Supplementary Figure 11: Subnuclear distribution of hHP1 β wild type and mutant proteins .
(a) The indicated proteins fused to EGFP were transiently expressed in mouse fibroblast cells.
Representative fluorescence confocal images are shown. DNA was stained with DAPI. Scale bar […]
(b) Quantification of the subnuclear distribution of the hHP1β WT and mutant proteins analyzed as in ( a) by visual inspection. EGFP signal in each transfected cell was categoriz ed into ‘dotted’ (see WT distribution in panel a) or ‘diffuse’ (see distribution of I161A in panel a). n >100 for each condition.
(1 picture or pasted object on this page, not shown here)

H3K9me3 oligonucleosomes [1] = experiment: Scanning force microscopy; assay type: biochemical, Xenopus laevis; conditions: 50 mM NaCl
Description: Nucleosomal arrays and recombinant hHP1β were dialyzed against SFM buffer (5 mM triethanolamine (pH7.5), 50 mM NaCl, 0.1 mM EDTA). The recombinant proteins at different concentrations (between 0 and 5 μM) were preincubated with oligonucleosomes at a DNA concentration of 50 ng ml^−1 in SFM buffer for 1 h at 4°C, and the samples were fixed with 0.05% (v/v) fresh glutaraldehyde (Electron Microscopy Sciences, PA, USA) at 4°C overnight. Fixed samples were extensively dialyzed against TEAE buffer (5 mM triethanolamine (pH 7.5), 0.1 mM EDTA). 10 μl of dialyzed sample was deposited on ca. 1 cm^2 of freshly cleaved mica (Plano). After 5 min incubation at RT, the mica was washed with 200 μl of water (high-performance liquid chromatography grade) and air-dried. Images were recorded in air on a Nanoscope V Multi Mode scanning force microscope (Veeco, NY, USA) using an ‘E'-scanner with maximum scan size of 15 × 15 μm and silicon-etched probe tips with a typical spring constant of 40 N m^−1 and a typical resonance frequency of 325 kHz (NSC15, MikroMasch) in tapping mode. […]

H3K9me3 oligonucleosomes [2] = experiment: Chromatin sedimentation (clustering), H3K9me3 oligonucleosomes; assay type: biochemical, Xenopus laevis; conditions: for chromatin clustering/aggregation, H3K9me3: saturating protein (5 μM) or titration, EtBr fluorescence, n=3
Description: Figure 3 hHP1β clusters oligonuclesomal arrays in dependence of H3K9me3. (a) Oligonucleosomes (2.5 nM) were incubated with increasing concentrations of hHP1β WT or I161A at 150 mM NaCl. DNA remaining in the supernatant after centrifugation was incubated with EtBr and measured by fluorescence reading. Data were normalized to amounts in absence of added protein. Averages of three independent experiments are plotted; error bars represent s.d.; n=3. (b) Analysis of the hydrodynamic radius of oligonucleosomes (10 nM; DNA labelled with ATTO 610) in the presence of increasing concentrations of hHP1β WT or I161A by FCS at 150 mM NaCl. For details on experimental setup see Supplementary Fig. 3. Error bars represent s.d.; n=3. (c) Oligonucleosomes were reconstituted after mixing H3K9me0 and H3K9me3 octamers at different ratio. Chromatin precipitation analysis at 150 mM NaCl was carried out with hHP1β WT at saturating concentration. Data are presented as in a. (d) Precipitation behaviour of oligonucleosomes (2.5 nM) was analysed at different concentrations of NaCl with hHP1β WT at saturating concentration. Data are presented as in a. (e) H3K9me3-containing chromatin was reconstituted using wild-type core histones or tailless H2A, H2B or H4. Oligonucleosomes (2.5 nM) were incubated with increasing concentrations of hHP1β WT at 150 mM NaCl. Data are presented as in a. (f) Chromatin coprecipitation of hHP1β with H3K9me3-containing oligonucleosomes reconstituted with wild-type or tailless core histones at the indicated concentrations of MgCl2. Precipitated material was analysed by western blotting. The region of the western blot membrane of the experiment at 7.5 mM MgCl2 containing histones was stained with Ponceau. (g) Oligonucleosomes at 50 mM NaCl were incubated with hHP1β WT or I161A. Complexes were fixed with 0.05% (v/v) glutaraldehyde, spotted on mica surfaces and analysed by scanning force microscopy. Control, no protein added; scale bar, 100 nm. (h) Quantification of results representatively shown in g according to the classification on the top: A, extended; B, partially condensed; C, fully condensed; D; aggregates; n>50 for each condition.
For saturating conditions, 2.7 nM oligonucleosomes were incubated with 5 μM hHP1β proteins in 100 μl sedimentation buffer (10 mM triethanolamine (pH 7.5), 150 mM NaCl, 0.1 mM EDTA) for 1 h on ice. For non-saturating conditions, 3 μM recombinant proteins were used and the NaCl concentration in the sedimentation buffer was lowered to 100 mM. After incubation, 40 μl per sample was placed into a well of a 96-well plate and kept as ‘input'. The rest was centrifuged at 16,100g for 30 min at 4°C. 40 μl supernatant was carefully removed and placed into a 96-well plate (‘output'). For quantification of chromatin DNA, the input and output samples were incubated with 40 μl 0.5 μg ml^−1 ethidium bromide and fluorescence was measured on a Plate CHAMELEON II fluorescence plate reader (Hidex, Turku, Finland) using a 360 nm (±5 nm) excitation filter and a 612 nm (±5 nm) emission filter. For each sample the ratio of DNA concentrations after and before centrifugation (output/input) was calculated.
Supplementary Table 1: Summary of conditions used in the different experiments of this study. experiment result modification template Temp. [NaCl] [MgCl2] […]
chromatin Fig. 1e,f; Fig. S1f-h; H3K9me3 oligo- 4 150 5 coprecipitation Fig. S2b nucleosomes
Fig. S7d,f; Fig.S9c nucleosomes […]
chromatin sedimentation Fig. 4a; H3K9me3 oligo- 4 150 0
(single point) Fig. S3b nucleosomes […]
chromatin sedimentation. oligo-(titration) Fig. 3a H3K9me3 nucleosomes 4 150 0 […]
crosslinking Fig. S6e,f nucleosomes […]
crosslinking Fig. S7a,b nucleosomes
EMSA Fig. 1g; Fig. 5c; n//a RT 100 5
1Preincubation of oligonucleosomes and h HP1β was performed at 4 °C . Measurements wer e carried out at the in dicated te mperature.
2in increments o f 0 .5 mM
3MgCl2 was added at the end of incubation to coprecipitate oligonucleosomes a nd bound hHP1β.

Substance	subnuclear distribution (mouse fibroblasts)	structures observed by SFM (H3K9me3 oligonucleosomes [1]; 0.5 μM protein)	structures observed by SFM (H3K9me3 oligonucleosomes [1]; 5 μM protein)	frequency of condensed chromatin fibres and large clusters, H3K9me0 (H3K9me3 oligonucleosomes [1]; H3K9me0 chromatin, n>50)	concentration sufficient for maximal chromatin clustering (H3K9me3 oligonucleosomes [2]; 150 mM NaCl)	EC50 (H3K9me3 oligonucleosomes [2]; 150 mM NaCl, 4°C, read-out: half-maximal effect, chromatin precipitation assay)	chromatin clustering/aggregation, H3K9me3 (H3K9me3 oligonucleosomes [2]; 150 mM NaCl)	salt concentration above which hHP1β induces clustering (H3K9me3 oligonucleosomes [2]; salt titration, saturating hHP1β WT, 2.5 nM oligonucleosomes)	reversibility of aggregation (H3K9me3 oligonucleosomes [2]; stepwise precipitation and resolubilization)	frequency of condensed chromatin fibres and large clusters (H3K9me3 oligonucleosomes [1]; H3K9me3 chromatin, n>50)	chromatin clustering/aggregation, H3K9me3 (H3K9me3 oligonucleosomes [2]; 150 mM NaCl, listed as I161A)
hHP1β WT: recombinant human heterochromatin protein 1β (GenBank NM_001127228), 185 aa	largely localized to characteristic areas of pericentromeric heterochromatin enriched in H3K9me3	individual but highly condensed H3K9me3 chromatin species	larger clusters that must contain multiple oligonucleosomes were visible	much lower for H3K9me0 chromatin with hHP1β WT	5 µM	400 nM	efficiently aggregated H3K9me3	above 50 mM NaCl	generally reversible	–	–
hHP1β I161A: CSD point mutant of hHP1β incapable of dimerization	diffuse distribution	–	–	–	–	–	failed to induce the aggregation of oligonucleosomes	–	–	much lower	neither the I161A mutant, nor the isolated CD or CSD had any effect on modified or unmodified chromatin
